Experiments:
GST-JAK2(808-1132) = target: T1, GST-JAK2(808-1132) (Homo sapiens, UniProt O60674); test: EPK JAK-family kinases profiling assay (Caliper mobility shift), JAK2; format: biochemical; details: ATP 20 μM, 1.8 nM kinase
T1 construct: GST-JAK2(808-1132); purchased Invitrogen (Carlsbad, USA) #4288
Source text: (§1) All four kinases of the JAK-family kinases were used as purified recombinant GST-fusion proteins, containing the active kinase domains. GST-JAK1(866-1154), GST-JAK3(811-1124), and GST-TYK2(888-1187) were expressed and purified by affinity chromatography at the EPK biology unit. GST-JAK2(808-1132) was purchased from Invitrogen (Carlsbad, USA, #4288).
(§2) The kinase assays were based on the Caliper mobility shift assay using the LabChip 3000 systems. This technology is similar to capillary electrophoresis and uses charge driven separation of substrate and product in a microfluidic chip.
(§3) All kinase reactions were performed in 384 well microtiter plates in a total reaction volume of 18 μl. The assay plates were prepared with 0.1 μl per well of test compound in the appropriate test concentration, as described under the section “preparation of compound dilutions”. The reactions were started by combining 9 μl of substrate mix (consisting of peptide and ATP) with 9 μl of kinase dilution. The reactions were incubated for 60 minutes at 30° C. and stopped by adding 70 μl of stop buffer (100 mM Hepes, 5% DMSO, 0.1% Coating reagent, 10 mM EDTA, 0.015% Brij 35).
(§4) Fluorescently labeled synthetic peptides were used as substrates in all reactions. […] Specific assay conditions are described in Table 1:
(§5) The terminated reactions were transferred to the Caliper LabChip 3000 reader and the turnover of each reaction was measured by determining the substrate/product ratio.
(§6) Test compounds were dissolved in DMSO (10 mM) and transferred into 1.4 mL flat bottom or V-shaped Matrix tubes carrying a unique 2D matrix chip by individual compound hubs. The numbers of these chips were distinctively linked to the individual compound identification numbers. The stock solutions were stored at −20° C. if not used immediately. For the test procedure the vials were defrosted and identified by a scanner whereby a working sheet was generated that guided the subsequent working steps.
(§7) Compound dilutions were made in 96 well plates. This format enabled the assay of maximally 40 individual test compounds at 8 concentrations (single points) including 4 reference compounds. The dilution protocol included the production of pre-dilution plates, master plates and assay plates:
(§8) Pre-dilution plates: 96 polypropylene well plates were used as pre-dilution plates. A total of 4 pre-dilution plates were prepared including 10 test compounds each on the plate positions A1-A10, one standard compound at A11 and one DMSO control at A12. All dilution steps were done on a HamiltonSTAR robot.
(§9) Master plates: 100 μL of individual compound dilutions including standard compound and controls of the 4 “pre-dilution plates” were transferred into a 384 “master plate” including the following concentrations 1′820, 564, 182, 54.6, 18.2, 5.46, 1.82 and 0.546 μM, respectively in 90% of DMSO.
(§10) Assay plates: Identical assay plates were then prepared by pipetting 100 nL each of compound dilutions of the master plates into 384-well “assay plates”. […] The preparation of the master plates were handled by the Matrix PlateMate Plus robot and replication of assay plates by the HummingBird robot.

GST-JAK3(811-1124) = target: T2, GST-JAK3(811-1124) (Homo sapiens, UniProt P52333); test: EPK JAK-family kinases profiling assay (Caliper mobility shift), JAK3; format: biochemical; details: ATP 80 μM, 6 nM kinase
T2 construct: GST-JAK3(811-1124); made in house
T2 sequence (P52333 811-1124): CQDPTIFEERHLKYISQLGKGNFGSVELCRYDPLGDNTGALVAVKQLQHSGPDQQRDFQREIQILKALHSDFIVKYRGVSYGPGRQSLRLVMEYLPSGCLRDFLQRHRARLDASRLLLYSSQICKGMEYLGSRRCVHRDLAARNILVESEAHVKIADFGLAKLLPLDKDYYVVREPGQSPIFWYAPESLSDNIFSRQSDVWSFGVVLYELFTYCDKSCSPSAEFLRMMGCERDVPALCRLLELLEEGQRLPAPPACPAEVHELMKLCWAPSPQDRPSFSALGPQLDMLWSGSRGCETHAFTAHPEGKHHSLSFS
Source text: as §1, §2, §3, §4, §5, §6, §7, §8, §9, §10

[1] = test system: JAK/STAT pathway (JAK1/JAK2-dependent nuclear translocation of STAT1-GFP); test: Inhibition of the JAK/STAT pathway: IFN-γ stimulated nuclear translocation of STAT1-GFP in HT1080 fibrosarcoma cells; format: cell-based; details: Homo sapiens, HT-1080; HT1080 STAT1-GFP cells, 100 ng/ml IFN-γ 2 hours, compound added 30 min before; read-out: STAT1translo IC50
Source text: The medium-throughput (96-well format), robust and reproducible cellular assay can be routinely used to assess the functional activation of Janus Kinases (JAKs), based on the nuclear translocation of their substrate, Signal Transducer and Activator of Transcription (STAT). Nuclear translocation can be monitored in HT1080 fibrosarcoma cells stably transfected with STAT1 fused to Green Fluorescence Protein (GFP). Stimulation with interferon-γ (IFN-γ) results in JAK1/JAK2-dependent nuclear translocation of STAT1-GFP that can be quantified using the Cellomics Cyto/NucTrans software package. This assay may be used to provide an assessment of the nuclear-cytoplasmic differential (NCD) of GFP-STAT1 using Hoechst dye to define the boundaries of the nucleus.
Compounds can be dissolved in DMSO to a final stock concentration of 10 mM and stored as aliquots at 4° C. Compounds may be pre-diluted in 100% DMSO at 10 mM, 3 mM 1 mM, 0.3 mM, 0.1 mM, 0.03 mM, 0.01 mM and 0.003 mM. Subsequently, compounds may be diluted in medium and added in 50 μl to the cells. The final compound concentrations tested may be 10 μM, 3 μM 1 μM, 0.3 μM, 0.1 μM, 0.03 μM, 0.01 μM and 0.003 μM and the final DMSO concentration can be 0.1%.
The plates may then be washed once in PBS, and 200 μl PBS finally added per well. The plates, being finally covered with a black adhesive, may be either read directly or stored at 4° C. for later imaging. Where appropriate, the compounds may be added 30 min before stimulation with IFN-γ.
The plates can be read on a Cellomics® ArrayscanII automated fluorescence microscope plate reader equipped with a Mercury-Xenon white light illumination source and a Zeiss Axiovert inverted microscope, using the XF100 dichroic/emission filter cube and matching excitation filters, 10× magnification, and a 0.3 numerical aperture objective. Image acquisition and analysis can be performed using a customized protocol based on the ‘NuclearTranslocation’ Bioapplication (for details, see Appendices). For each well, multiple images (fields) can be acquired until a minimum of 1000 cells are counted using two 2 channels: Channel 1 (Hoechst)=focus+nuclear mask, Channel 2 (GFP)=signal quantification in mask areas as outlined below.
Nuclei may be first identified based on the Hoechst staining and a mask generated for each nucleus that then serves as a template to generate a circle (eroded inwards by 1 pixel) and a 3 pixel-wide collar-like ring (off-set outwards by 1 pixel), in which the nuclear and cytoplasmic intensity of GFP, respectively, are quantified in the corresponding channel. High content analysis yields numerous measurements per cell and the GPF intensity differential between the nuclear and the cytoplasmic masks may be chosen as a measure of sub-cellular GFP-STAT1 relocation. The resulting values may be averaged for all cells in the well to return a single measurement plus standard deviation.

GST-JAK1(866-1154) = target: T3, GST-JAK1(866-1154) (Homo sapiens, UniProt P23458); test: EPK JAK-family kinases profiling assay (Caliper mobility shift), JAK1; format: biochemical; details: ATP 40 μM, 50 nM kinase
T3 construct: GST-JAK1(866-1154); made in house
T3 sequence (P23458 866-1154): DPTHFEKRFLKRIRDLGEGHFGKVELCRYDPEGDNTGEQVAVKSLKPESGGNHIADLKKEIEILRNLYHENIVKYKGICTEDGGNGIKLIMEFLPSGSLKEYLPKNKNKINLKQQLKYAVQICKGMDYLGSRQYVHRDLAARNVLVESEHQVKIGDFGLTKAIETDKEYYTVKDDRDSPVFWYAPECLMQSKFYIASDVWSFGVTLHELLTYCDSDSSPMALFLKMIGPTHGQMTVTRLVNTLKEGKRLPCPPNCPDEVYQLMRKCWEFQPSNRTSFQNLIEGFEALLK
Source text: as §1, §2, §3, §4, §5, §6, §7, §8, §9, §10

T1 sequence (O60674 808-1132): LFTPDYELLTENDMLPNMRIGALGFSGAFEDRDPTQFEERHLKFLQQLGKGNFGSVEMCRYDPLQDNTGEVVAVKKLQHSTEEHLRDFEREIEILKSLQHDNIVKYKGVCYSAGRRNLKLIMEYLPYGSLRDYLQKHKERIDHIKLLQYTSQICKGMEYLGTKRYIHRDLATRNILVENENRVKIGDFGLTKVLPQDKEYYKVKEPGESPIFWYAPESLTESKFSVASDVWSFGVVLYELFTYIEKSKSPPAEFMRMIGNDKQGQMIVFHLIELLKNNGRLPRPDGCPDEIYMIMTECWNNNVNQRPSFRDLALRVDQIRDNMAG

## COc1cc(-c2cnc3cccc(-c4ccc(C(=O)N5CCOCC5)cc4F)c3n2)cc(OC)c1OC [Example 1, {3-Fluoro-4-[3-(3,4,5-trimethoxy-phenyl)-quinoxalin-5-yl]-phenyl}-morpholin-4-yl-methanone]
GST-JAK2(808-1132)
  IC50: 82 nM
GST-JAK3(811-1124)
  IC50: 4400 nM

## COc1cc(-c2cnc3cccc(-c4ccc(S(C)(=O)=O)cc4)c3n2)cc(OC)c1OC [Example 2, 8-(4-Methanesulfonyl-phenyl)-2-(3,4,5-trimethoxy-phenyl)-quinoxaline]
GST-JAK2(808-1132)
  IC50: 120 nM
GST-JAK3(811-1124)
  IC50: 5400 nM

## CCS(=O)(=O)c1ccc(-c2cccc3ncc(-c4cc(OC)c(OC)c(OC)c4)nc23)cc1 [Example 3, 8-(4-Ethanesulfonyl-phenyl)-2-(3,4,5-trimethoxy-phenyl)-quinoxaline]
GST-JAK2(808-1132)
  IC50: 85 nM
GST-JAK3(811-1124)
  IC50: 9400 nM
[1]
  IC50: 10800 nM

## COc1cc(-c2cnc3cccc(-c4ccc(S(=O)(=O)C(C)C)cc4)c3n2)cc(OC)c1OC [Example 4, 8-[4-(Propane-2-sulfonyl)-phenyl]-2-(3,4,5-trimethoxy-phenyl)-quinoxaline]
GST-JAK2(808-1132)
  IC50: 220 nM
GST-JAK3(811-1124)
  IC50: > 10000 nM

## COc1cc(-c2cnc3cccc(-c4ccc(S(N)(=O)=O)cc4)c3n2)cc(OC)c1OC [Example 5, 4-[3-(3,4,5-Trimethoxy-phenyl)-quinoxalin-5-yl]-benzenesulfonamide]
GST-JAK2(808-1132)
  IC50: 110 nM
GST-JAK3(811-1124)
  IC50: > 10000 nM

## CCNS(=O)(=O)c1ccc(-c2cccc3ncc(-c4cc(OC)c(OC)c(OC)c4)nc23)cc1 [Example 7, N-Ethyl-4-[3-(3,4,5-trimethoxy-phenyl)-quinoxalin-5-yl]-benzenesulfonamide]
GST-JAK2(808-1132)
  IC50: 95 nM
GST-JAK3(811-1124)
  IC50: 8420 nM

## COc1cc(-c2cnc3cccc(-c4ccc(S(=O)(=O)N(C)C)cc4)c3n2)cc(OC)c1OC [Example 8, N,N-Dimethyl-4-[3-(3,4,5-trimethoxy-phenyl)-quinoxalin-5-yl]-benzenesulfonamide]
GST-JAK2(808-1132)
  IC50: 110 nM
GST-JAK3(811-1124)
  IC50: > 10000 nM

## CNC(=O)c1ccc(-c2cccc3ncc(-c4cc(OC)c(OC)c(OC)c4)nc23)cc1 [Example 9, N-Methyl-4-[3-(3,4,5-trimethoxy-phenyl)-quinoxalin-5-yl]-benzamide]
GST-JAK2(808-1132)
  IC50: 170 nM
GST-JAK3(811-1124)
  IC50: > 10000 nM

## COc1cc(-c2cnc3cccc(-c4ccc(CC(=O)N5CCOCC5)cc4)c3n2)cc(OC)c1OC [Example 11, 1-Morpholin-4-yl-2-{4-[3-(3,4,5-trimethoxy-phenyl)-quinoxalin-5-yl]-phenyl}-ethanone]
GST-JAK2(808-1132)
  IC50: 9 nM
GST-JAK1(866-1154)
  IC50: 39 nM

## COc1cc(-c2cnc3cccc(-c4ccc(NS(C)(=O)=O)cc4)c3n2)cc(OC)c1OC [Example 12, N-{4-[3-(3,4,5-Trimethoxy-phenyl)-quinoxalin-5-yl]-phenyl}-methanesulfonamide]
GST-JAK2(808-1132)
  IC50: 52.5 nM
GST-JAK1(866-1154)
  IC50: 180 nM
GST-JAK3(811-1124)
  IC50: > 10000 nM

## COc1cc(-c2cnc3cccc(-c4ccc(CN5CCOCC5)cc4)c3n2)cc(OC)c1OC [Example 15, 8-(4-Morpholin-4-ylmethyl-phenyl)-2-(3,4,5-trimethoxy-phenyl)-quinoxaline]
GST-JAK3(811-1124)
  IC50: > 10000 nM

## COc1cc(-c2cnc3cccc(-c4ccc(C(=O)N5CCOCC5)c(C)c4)c3n2)cc(OC)c1OC [Example 16, {2-Methyl-4-[3-(3,4,5-trimethoxy-phenyl)-quinoxalin-5-yl]-phenyl}-morpholin-4-yl-methanone]
GST-JAK2(808-1132)
  IC50: 19 nM

## COc1cc(-c2cnc3cccc(-c4ccc(CN5CCS(=O)(=O)CC5)cc4)c3n2)cc(OC)c1OC [Example 19, 8-[4-(1,1-Dioxido-thiomorpholin-4-ylmethyl)-phenyl]-2-(3,4,5-trimethoxy-phenyl)-quinoxaline]
GST-JAK1(866-1154)
  IC50: 59 nM

## COc1cc(-c2cnc3cccc(-c4ccc(CN5CCOCC5)c(F)c4)c3n2)cc(OC)c1OC [Example 20, 8-(3-Fluoro-4-morpholin-4-ylmethyl-phenyl)-2-(3,4,5-trimethoxy-phenyl)-quinoxaline]
GST-JAK2(808-1132)
  IC50: 24 nM
GST-JAK1(866-1154)
  IC50: 160 nM

## COc1cc(-c2cnc3cccc(-c4ccc(CN5CCOCC5)c(C)c4)c3n2)cc(OC)c1OC [Example 21, 8-(3-Methyl-4-morpholin-4-ylmethyl-phenyl)-2-(3,4,5-trimethoxy-phenyl)-quinoxaline]
GST-JAK1(866-1154)
  IC50: 1800 nM

## COc1ccc(-c2cnc3cccc(-c4ccc(S(C)(=O)=O)cc4)c3n2)cc1OC [Example 23, 2-(3,4-Dimethoxy-phenyl)-8-(4-methanesulfonyl-phenyl)-quinoxaline]
GST-JAK2(808-1132)
  IC50: 200 nM
GST-JAK3(811-1124)
  IC50: > 10000 nM

## CS(=O)(=O)Nc1cccc(-c2cnc3cccc(-c4ccc(CC(=O)N5CCOCC5)cc4)c3n2)c1 [Example 38, N-(3-{8-[4-(2-Morpholin-4-yl-2-oxo-ethyl)-phenyl]-quinoxalin-2-yl}-phenyl)-methanesulfonamide]
GST-JAK2(808-1132)
  IC50: 23 nM
GST-JAK3(811-1124)
  IC50: 4200 nM

## CCS(=O)(=O)c1ccc(-c2cccc3ncc(-c4cccc(NS(C)(=O)=O)c4)nc23)cc1 [Example 39, N-{3-[8-(4-Ethanesulfonyl-phenyl)-quinoxalin-2-yl]-phenyl}-methanesulfonamide]
GST-JAK2(808-1132)
  IC50: 190 nM
GST-JAK3(811-1124)
  IC50: > 10000 nM

## CCS(=O)(=O)c1ccc(-c2cccc3ncc(-c4ccc(OCCOC)c(OC)c4)nc23)cc1 [Example 47]
GST-JAK2(808-1132)
  IC50: 38 nM
GST-JAK3(811-1124)
  IC50: > 10000 nM

## CCS(=O)(=O)c1ccc(-c2cccc3ncc(-c4ccc(O)c(OC)c4)nc23)cc1 [Example 77, 4-[8-(4-Ethanesulfonyl-phenyl)-quinoxalin-2-yl]-2-methoxy-phenol]
GST-JAK2(808-1132)
  IC50: 130 nM
GST-JAK3(811-1124)
  IC50: 9800 nM

## COc1cc(-c2cnc3cc(C)cc(-c4ccc(C(=O)N5CCOCC5)cc4)c3n2)cc(OC)c1OC [Example 79, {4-[7-Methyl-3-(3,4,5-trimethoxy-phenyl)-quinoxalin-5-yl]-phenyl}-morpholin-4-yl-methanone]
GST-JAK2(808-1132)
  IC50: 520 nM
GST-JAK3(811-1124)
  IC50: > 10000 nM

Reference: patent US8193189B2, “Quinoxaline derivatives as tyrosine kinase activity inhibitors” (Novartis AG, priority 2007, dated 2012)
